According to patent US12605403B2, “Compositions and methods for treating transient biofilms” (WIAB WATER INNOVATION AB, priority 2016, dated 2026):

Legend:
natural bacteria = experiment: hand and forearm rub test, effect on natural bacteria of the skin (Handrub procedure PN-EN 12791:2005); assay type: in vivo; conditions: hands of 20 subjects
Procedure: In another experiment aliquots of the disclosed composition (3 mL of 0.03% HOCl, 0.13% Hac) were applied to each of the hands of 20 subjects. […] The composition was rubbed into the hands and forearms for 5 minutes to maintain exposure to the compositions according to Handrub procedure PN-EN 12791:2005.
Bacteria kills of Escherichia coli, Pseudomonas aeruginosa, Staphylococcus areus, and Enterococcus hirae were measured immediately after the application and again 3 hours after application.

Escherichia coli = experiment: hand disinfection test, transient bacteria on hands of subjects (Handrub procedure PN-EN 1500:2013-07); assay type: in vivo; conditions: 18 subjects, E. coli on hands, hand rub
Procedure: Tests were performed on the hands of healthy subjects to determine the transient bacteria killing effect of the disclosed compositions. The subjects washed their hands, and dipped their fingertips into Escherichia coli. The disclosed compositions were applied to the subjects' hands by rubbing the disclosed compositions into the skin to stimulate the removal of the transient bacteria on the skin. The same test was performed using prior art alcohol compositions.
Tests were performed on the hands of healthy subjects to determine the transient bacteria killing effect of the disclosed compositions.
In this experiment, 18 subjects washed their hands, and dipped their fingertips into a solution of Escherichia coli. Once the subjects' hands were dry, aliquots of the disclosed composition (5 mL of 160 ppm HOCl, 0.13% Hac) were applied to the subjects' dry hands and rubbed into the skin for 30 to stimulate the removal of the transient bacteria on the skin, according to Handrub procedure PN-EN 1500:2013-07.

CCCO [propan-1-ol, 60% v/v, propan-1-ol]
reduction of the natural bacteria (natural bacteria; 3 hours after application): 2.16 log | reduction of the natural bacteria (natural bacteria; immediately after application): 2.48 log

CC(C)O [2-propanol 60% v/v, 2-propanol]
reduction of the presence of the transient bacteria (Escherichia coli): 4 log
